Assay results reported in patent US4937390A, “Compound useful for the production of 3-deoxy-3-fluoro-myo-inositol” (University of Pittsburgh, priority 1989, dated 1990).

Tests used:
Format in all cases: cell-based, rat
PC12 cells [1] = test: Effect on cell size (protein per cell, Lowry) in PC12 cells; settings: for effect on cell cycle / cell division: chronically treated PC12 cells
Excerpt: As cells grow in culture, the size of an individual cell varies in a fairly predictable way. The size of a cell can be expressed as the amount of protein present per cell. […] Immediately after mitosis, the cell size drops considerably, frequently to levels approximately half of the pre-mitotic level.
By investigating the size of a cell, it is possible to determine at which point within the cell cycle inhibitors of cell replication are exerting their effects. Accordingly, we investigated the effect of the 1- and 3-fluoro-myo-inositol analogs on the size of cells chronically treated with such analogs.
Cells were grown and treated with 1- and 3-fluoro-myo-inositol analogs as described in Example XIII. On the days indicated, cells were gently harvested without disruption, and the number of cells counted in triplicate in a cell counting chamber. Following determination of the number of cells per sample, the remainder of the cells were pelleted in a microcentrifuge as described hereinabove, and the protein in the sample was determined by the method of Lowry. Thus, it was possible to derive from these two data sets the amount of protein per cell, which is expressed as nanograms of protein per cell, as indicated in Table 3: […]

PC12 cells [2] = test: Cell growth inhibition (cell counts), dose response and time course in PC12 cells; settings: for concentration determined to have maximal effects in the dose response study / inhibition of cell replication / Cell Number / potency at inhibiting cell replication relative to the 3-fluoro-myo-inositol analog: PC12 cells; for concentration determined to have maximal effects in the dose response study: cell replication; for inhibition of cell replication: dose response study, maximal effect; for inhibition of cell replication / Cell Number: five days
Protocol: The biological effects of the 3-fluoro and 1-fluoro myo-inositol analogs were tested in PC12 cells, a cell line derived from a rat pheochromocytoma, which has been widely used to study the effects of various growth factors and […]., Adv. Cell Neurobiol., 3, 373-414, (1982), the disclosure of which is incorporated herein by reference.
PC12 cells were seeded at a density of 3.3×10^5 cells/cm^2 in plastic culture dishes and grown at 37° C. in a humidified atmosphere of 95% air/5% CO2. The basal medium used in these experiments was RPMI-1640 medium (Gibco). In some experiments a specially formulated inositol-free RPMI-1640 medium (Gibco) was used. This basal medium was supplemented with either normal or extensively dialyzed horse serum (10%) and fetal calf serum (5%) (Gibco). Some control dishes were grown in complete RPMI medium, i.e. with myo-inositol and containing non-dialyzed serum (Control 1) and some control dishes were grown in inositol deficient medium, i.e., RPMI without inositol and with dialyzed serum (Control 2). The inositol analogs were dissolved in distilled H2 O and added to the culture medium at the indicated concentrations.
Cell counts were performed by removing the medium, washing the cells gently in PBS with calcium, detaching the cells by 15 minute induction in PBS/EDTA (0.5 mM) containing 0.1% trypsin, and counting in a hemocytometer.
A dose-response study was performed by growing cells in the presence of certain concentrations of the 3-fluoro and the 1-fluoro-myo-inositol analogs. At the end of five days, the cells were counted by the means described hereinabove.
The time course effect on cell replication was then examined, using the concentration of 1-fluoro and 3-fluoro myo-inositol analogs determined to have maximal effects in the dose response study of Table 1. (1 mM and 5 mM for the 1-fluoro and 3-fluoro-myo-inositol analogs, respectively).

PC12 cells [3] = test: Uptake and incorporation of [3H]myo-inositol into PC12 cells following treatment with inositol analogs; settings: for Bound [3H]myo-inositol (incorporated into membranes) / Free [3H]myo-inositol (cytoplasm): one hour [3H]myo-inositol
Protocol: Since myo-inositol must be incorporated into the cellular plasma membranes in order for it to serve its role as a second messenger, we therefore verified the ability of the 1- and 3-fluoro-myo-inositol analogs to perturb the incorporation of myo-inositol into cellular plasma membranes by the enzyme […] CDP-diacylglycerol-inositol phosphatidylytransferase (phosphatidylinositolsynthesis).
These tests were conducted by treating cells for either 1, 3, 5, or 7 days with the myo-inositol analogs, followed by a brief exposure to radiolabeled myo-inositol ([^3 H]myo-inositol). The extent of incorporation of tritiated myo-inositol would, therefore, reflect the extent to which phosphatidylinositol and its phosphorylated analogs are deficient in the cellular plasma membranes.
Cells were grown as described hereinabove. Twenty-four hours after plating, the medium was changed and cells were exposed to either inositol free medium (Control 2) or medium containing either the 1- or the 3-fluoro-myo-inositol analog. At four different time points --1, 3, 5, and 7 days--cells were tested for their ability to incorporate radiolabeled [^3 H]myo-inositol. This test was conducted by removing the medium and replacing it with RPMI medium (both myo-inositol and serum free) containing only [^3 H]myo-inositol. The cells were exposed to this medium for a period of one hour, following which they were washed three times with phosphate-buffered saline containing excess unlabeled myo-inositol (10 mM). Cells were lysed by treatment with trichloroacetic acid (TCA) and sonicated to insure complete disruption. The cellular homogenate was then collected and spun in a microfuge tube at 12,000 r.p.m. for 15 min. Samples from both the pellet and supernatant were then obtained and the levels of radioactivity in each were determined. Radioactivity in the supernatant corresponded to the amount of free [^3 H]myo-inositol in the cytoplasm of the cell, whereas the radioactivity present in the TCA-precipated pellet represented [^3 H]myo-inositol incorporated into the cellular plasma membranes.
Cells were treated for the indicated time periods with the inositol
analogs, and then exposed for one hour to [^3 H]myoinositol. Numbers
represent DPM/10^6 cells.

SMILES | effect on cell cycle / cell division (PC12 cells [1]) | Cell size (protein per cell) (PC12 cells [1]; treatment duration 1 day) | Cell size (protein per cell) (PC12 cells [1]; treatment duration 3 days) | Cell size (protein per cell) (PC12 cells [1]; treatment duration 5 days) | Cell size (protein per cell) (PC12 cells [1]; treatment duration 7 days) | concentration determined to have maximal effects in the dose response study (PC12 cells [2]) | inhibition of cell replication (PC12 cells [2]) | Cell Number (PC12 cells [2]; 0.01 mM) | Cell Number (PC12 cells [2]; 0.03 mM) | Cell Number (PC12 cells [2]; 0.10 mM) | Cell Number (PC12 cells [2]; 0.30 mM) | Cell Number (PC12 cells [2]; 1.0 mM) | Cell Number (PC12 cells [2]; 3.0 mM) | Cell Number (PC12 cells [2]; 10.0 mM) | Cell Number (PC12 cells [2]; 30.0 mM) | Bound [3H]myo-inositol (incorporated into membranes) (PC12 cells [3]; Day 1 of treatment) | Free [3H]myo-inositol (cytoplasm) (PC12 cells [3]; Day 1 of treatment) | Bound [3H]myo-inositol (incorporated into membranes) (PC12 cells [3]; Day 3 of treatment) | Free [3H]myo-inositol (cytoplasm) (PC12 cells [3]; Day 3 of treatment) | Bound [3H]myo-inositol (incorporated into membranes) (PC12 cells [3]; Day 5 of treatment) | further results
O[C@@H]1[C@@H](O)[C@@H](O)[C@@H](F)[C@H](O)[C@H]1O [1-deoxy-1-fluoro-myo-inositol] | arrested in a pre-mitotic state (termed late G2) | 0.082 ± 0.01 nanograms protein/cell | 0.135 ± 0.01 nanograms protein/cell | 0.160 ± 0.01 nanograms protein/cell | 0.168 ± 0.02 nanograms protein/cell | 1 mM | approximately 50% | 4.53 ± 0.13 × 10^5 cells/dish | 4.18 ± 0.07 × 10^5 cells/dish | 3.71 ± 0.03 × 10^5 cells/dish | 3.29 ± 0.08 × 10^5 cells/dish | 2.73 ± 0.13 × 10^5 cells/dish | 2.67 ± 0.09 × 10^5 cells/dish | 2.68 ± 0.07 × 10^5 cells/dish | 2.72 ± 0.03 × 10^5 cells/dish | 392 ± 16 DPM/10^6 cells | 8365 ± 787 DPM/10^6 cells | 4614 ± 141 DPM/10^6 cells | 4751 ± 291 DPM/10^6 cells | 2143 ± 314 DPM/10^6 cells | cell size relative to controls (PC12 cells [1]; cells arrested in pre-mitotic state): approximately 2 fold; Time course cell counts (PC12 cells [2]; Day 0, 1 mM, inositol-free medium): 1.46 × 10^5 cells per dish; Time course cell counts (PC12 cells [2]; Day 1, 1 mM): 2.10 ± 0.03 cells per dish, × 10^5; Time course cell counts (PC12 cells [2]; Day 3, 1 mM): 4.5 ± 0.10 cells per dish, × 10^5; Time course cell counts (PC12 cells [2]; Day 5, 1 mM): 8.4 ± 0.7 cells per dish, × 10^5; Time course cell counts (PC12 cells [2]; Day 7, 1 mM): 10.8 ± 0.6 cells per dish, × 10^5; potency at inhibiting cell replication relative to the 3-fluoro-myo-inositol analog (PC12 cells [2]; listed as 1-deoxy-1-deoxy-1-fluoro-myo-inositol): about five-fold; potency at inhibiting cell replication relative to the 3-fluoro-myo-inositol analog (PC12 cells [2]; listed as 1-fluoro-myo-inositol analog): 5 fold; Free [3H]myo-inositol (cytoplasm) (PC12 cells [3]; Day 5 of treatment): 4295 ± 627 DPM/10^6 cells; Bound [3H]myo-inositol (incorporated into membranes) (PC12 cells [3]; Day 7 of treatment): 3726 ± 588 DPM/10^6 cells; Free [3H]myo-inositol (cytoplasm) (PC12 cells [3]; Day 7 of treatment): 7569 ± 757 DPM/10^6 cells
O[C@@H]1[C@@H](O)[C@H](O)[C@@H](F)[C@@H](O)[C@H]1O [3-deoxy-3-fluoro-myo-inositol] | continued to increase steadily in size without undergoing cell division | 0.086 ± 0.01 nanograms protein/cell | 0.259 ± 0.01 nanograms protein/cell | 0.320 ± 0.01 nanograms protein/cell | 0.343 ± 0.03 nanograms protein/cell | 5 mM | approximately 50% | 4.60 ± 0.24 × 10^5 cells/dish | 4.49 ± 0.07 × 10^5 cells/dish | 4.21 ± 0.05 × 10^5 cells/dish | 3.87 ± 0.05 × 10^5 cells/dish | 3.21 ± 0.08 × 10^5 cells/dish | 2.53 ± 0.04 × 10^5 cells/dish | 2.50 ± 0.03 × 10^5 cells/dish | 2.36 ± 0.01 × 10^5 cells/dish | 354 ± 10 DPM/10^6 cells | 3326 ± 253 DPM/10^6 cells | 761 ± 42 DPM/10^6 cells | 2929 ± 189 DPM/10^6 cells | 414 ± 52 DPM/10^6 cells | cell size relative to control cells (PC12 cells [1]; by day seven): about 3.5 times; Time course cell counts (PC12 cells [2]; Day 0, 5 mM, inositol-free medium): 1.46 × 10^5 cells per dish; Time course cell counts (PC12 cells [2]; Day 1, 5 mM): 2.12 ± 0.02 cells per dish, × 10^5; Time course cell counts (PC12 cells [2]; Day 3, 5 mM): 4.2 ± 0.1 cells per dish, × 10^5; Time course cell counts (PC12 cells [2]; Day 5, 5 mM): 7.6 ± 0.1 cells per dish, × 10^5; Time course cell counts (PC12 cells [2]; Day 7, 5 mM): 10.6 ± 0.6 cells per dish, × 10^5; level of radioactivity-labeled myo-inositol incorporated into the cellular plasma membranes (PC12 cells [3]): quite low; Free [3H]myo-inositol (cytoplasm) (PC12 cells [3]; Day 5 of treatment): 2900 ± 383 DPM/10^6 cells; Bound [3H]myo-inositol (incorporated into membranes) (PC12 cells [3]; Day 7 of treatment): 676 ± 113 DPM/10^6 cells; Free [3H]myo-inositol (cytoplasm) (PC12 cells [3]; Day 7 of treatment): 4095 ± 161 DPM/10^6 cells
